Test results reported in patent US11969428B2, “Methods and pharmaceutical compositions for treating lymphoid malignancy” (priority 2011, dated 2024).

Tests used:
Test in all cases: Ambit KinomeScan screening
Format in all cases: binding
Conditions in all cases: CAL-130 10 μM
[1] = target: T1, ABL1(H396P) (Homo sapiens, UniProt P00519, H396P)
T1 construct: unspecified tag ("tagged kinases"); purchased Ambit (KinomeScan screening)
How it was run: (§1)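 Single-concentration profiling (10 μM CAL-130) measured displacement of tagged kinases from an immobilized bait ligand. Percent-of-control binding was reported; smaller values denote stronger interaction.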

[2] = target: T2, ABL1(T315I) (Homo sapiens, UniProt P00519, T315I)
T2 construct: unspecified tag ("tagged kinases"); purchased Ambit (KinomeScan screening)
How it was run: as §1

[3] = target: T3, BMPR1A (Homo sapiens, UniProt P36894)
T3 construct: purchased Ambit (KinomeScan screening service)
How it was run: as §1

[4] = target: T4, BTK (Homo sapiens, UniProt Q06187)
T4 construct: unspecified tag ("tagged kinases"); purchased Ambit (KinomeScan screening)
How it was run: as §1

[5] = target: T5, CAMK1 (Homo sapiens, UniProt Q14012)
T5 construct: unspecified tag ("tagged kinases"); purchased Ambit (KinomeScan screening)
How it was run: as §1

[6] = target: T6, CAMK1G (Homo sapiens, UniProt Q96NX5)
T6 construct: unspecified tag ("tagged kinases"); purchased Ambit (KinomeScan screening)
How it was run: as §1

[7] = target: T7, CDC2L1 (Homo sapiens, UniProt P21127)
T7 construct: purchased Ambit (KinomeScan screening)
How it was run: as §1

[8] = target: T8, DYRK2 (Homo sapiens, UniProt Q92630)
T8 construct: unspecified tag; purchased Ambit (KinomeScan screening service)
How it was run: as §1

[9] = target: T9, EGFR(G719S) (Homo sapiens, UniProt P00533, G719S)
T9 construct: unspecified tag; purchased Ambit (KinomeScan screening service)
How it was run: as §1

[10] = target: T10, EPHB1 (Homo sapiens, UniProt P54762)
T10 construct: purchased Ambit (KinomeScan screening service)
How it was run: as §1

[11] = target: T11, ERK2 (Homo sapiens, UniProt P28482)
T11 construct: unspecified tag ("tagged kinases"); purchased Ambit (KinomeScan screening service)
How it was run: as §1

[12] = target: T12, ERK5 (Homo sapiens, UniProt Q13164)
T12 construct: unspecified tag ("tagged kinases"); purchased Ambit (KinomeScan screening service)
How it was run: as §1

[13] = target: T13, FER (Homo sapiens, UniProt P16591)
T13 construct: unspecified tag ("tagged kinases"); purchased Ambit (KinomeScan screening service)
How it was run: as §1

[14] = target: T14, FGFR4 (Homo sapiens, UniProt P22455)
T14 construct: unspecified tag; purchased Ambit (KinomeScan screening service)
How it was run: as §1

[15] = target: T15, FLT3(D835Y) (Homo sapiens, UniProt P36888, D835Y)
T15 construct: unspecified tag; purchased Ambit (KinomeScan screening service)
How it was run: as §1

[16] = target: T16, FRK (Homo sapiens, UniProt P42685)
T16 construct: unspecified tag ('tagged kinases'); purchased Ambit (KinomeScan screening service)
How it was run: as §1

[17] = target: T17, ICK (Homo sapiens, UniProt Q9UPZ9)
T17 construct: Ambit (KinomeScan screening)
How it was run: as §1

[18] = target: T18, MST3 (Homo sapiens, UniProt Q9Y6E0)
T18 construct: unspecified tag; purchased Ambit (KinomeScan screening panel)
How it was run: as §1

[19] = target: T19, MYO3A (Homo sapiens, UniProt Q8NEV4)
T19 construct: unspecified tag; purchased Ambit (KinomeScan screening panel)
How it was run: as §1

[20] = target: T20, NEK6 (Homo sapiens, UniProt Q9HC98)
T20 construct: unspecified tag; purchased Ambit (KinomeScan screening panel)
How it was run: as §1

[21] = target: T21, NLK (Homo sapiens, UniProt Q9UBE8)
T21 construct: purchased Ambit (KinomeScan screening service)
How it was run: as §1

[22] = target: T22, PAK4 (Homo sapiens, UniProt O96013)
T22 construct: tag (kind not specified); purchased Ambit (KinomeScan screening service)
How it was run: as §1

[23] = target: T23, PHKG2 (Homo sapiens, UniProt P15735)
T23 construct: unspecified tag ('tagged kinases'); purchased Ambit (KinomeScan screening)
How it was run: as §1

[24] = target: T24, PRKCQ (Homo sapiens, UniProt Q04759)
T24 construct: purchased Ambit (KinomeScan screening service)
How it was run: as §1

[25] = target: T25, RET (Homo sapiens, UniProt P07949)
T25 construct: tag (kind not specified); purchased Ambit (KinomeScan screening service)
How it was run: as §1

[26] = target: T26, RIPK1 (Homo sapiens, UniProt Q13546)
T26 construct: unspecified tag (tagged kinase); purchased Ambit (KinomeScan screening)
How it was run: as §1

[27] = target: T27, RPS6KA1 (Homo sapiens, UniProt Q15418)
T27 construct: unspecified tag (tagged kinase); purchased Ambit (KinomeScan screening)
How it was run: as §1

[28] = target: T28, SBK1 (Homo sapiens, UniProt Q52WX2)
T28 construct: tag, kind not specified; purchased Ambit (KinomeScan screening service)
How it was run: as §1

[29] = target: T29, SIK2 (Homo sapiens, UniProt Q9H0K1)
T29 construct: tag, kind not specified; purchased Ambit (KinomeScan screening service)
How it was run: as §1

[30] = target: T30, TAOK3 (Homo sapiens, UniProt Q9H2K8)
T30 construct: tag (kind not specified); purchased Ambit (KinomeScan screening service)
How it was run: as §1

[31] = target: T31, TBK1 (Homo sapiens, UniProt Q9UHD2)
T31 construct: tag (kind not specified); purchased Ambit (KinomeScan screening service)
How it was run: as §1

[32] = target: T32, TLK1 (Homo sapiens, UniProt Q9UKI8)
T32 construct: unspecified tag (tagged kinase); purchased Ambit (KinomeScan screening)
How it was run: as §1

[33] = target: T33, TXK (Homo sapiens, UniProt P42681)
T33 construct: tag, kind not specified; purchased Ambit (KinomeScan screening service)
How it was run: as §1

[34] = target: T34, ULK1 (Homo sapiens, UniProt O75385)
T34 construct: tag, kind not specified; purchased Ambit (KinomeScan screening service)
How it was run: as §1

[35] = target: T35, YSK4 (Homo sapiens, UniProt Q56UN5)
T35 construct: purchased Ambit (KinomeScan screening service)
How it was run: as §1

[36] = target: T36, ZAP70 (Homo sapiens, UniProt P43403)
T36 construct: purchased Ambit (KinomeScan screening service)
How it was run: as §1

Measured: Percent of Control Binding

T24 sequence (Q04759 whole entry): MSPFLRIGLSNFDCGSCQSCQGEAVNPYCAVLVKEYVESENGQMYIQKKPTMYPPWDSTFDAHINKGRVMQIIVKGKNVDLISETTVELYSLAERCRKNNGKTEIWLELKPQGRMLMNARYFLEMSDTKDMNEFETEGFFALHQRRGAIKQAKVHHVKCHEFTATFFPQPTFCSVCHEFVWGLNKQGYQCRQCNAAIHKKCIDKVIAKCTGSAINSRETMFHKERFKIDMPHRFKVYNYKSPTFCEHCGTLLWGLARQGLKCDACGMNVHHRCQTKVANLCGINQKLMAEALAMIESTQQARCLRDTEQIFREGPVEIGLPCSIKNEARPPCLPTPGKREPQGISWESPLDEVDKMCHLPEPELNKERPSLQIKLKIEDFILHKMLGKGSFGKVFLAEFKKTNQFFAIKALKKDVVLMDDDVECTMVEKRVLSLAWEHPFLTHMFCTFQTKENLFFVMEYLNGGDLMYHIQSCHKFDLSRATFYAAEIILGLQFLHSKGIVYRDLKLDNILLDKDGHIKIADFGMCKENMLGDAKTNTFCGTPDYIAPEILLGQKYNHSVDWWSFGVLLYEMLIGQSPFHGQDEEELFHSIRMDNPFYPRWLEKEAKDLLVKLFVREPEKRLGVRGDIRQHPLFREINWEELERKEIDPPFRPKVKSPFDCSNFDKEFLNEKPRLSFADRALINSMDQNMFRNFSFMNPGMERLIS
T26 sequence (Q13546 whole entry): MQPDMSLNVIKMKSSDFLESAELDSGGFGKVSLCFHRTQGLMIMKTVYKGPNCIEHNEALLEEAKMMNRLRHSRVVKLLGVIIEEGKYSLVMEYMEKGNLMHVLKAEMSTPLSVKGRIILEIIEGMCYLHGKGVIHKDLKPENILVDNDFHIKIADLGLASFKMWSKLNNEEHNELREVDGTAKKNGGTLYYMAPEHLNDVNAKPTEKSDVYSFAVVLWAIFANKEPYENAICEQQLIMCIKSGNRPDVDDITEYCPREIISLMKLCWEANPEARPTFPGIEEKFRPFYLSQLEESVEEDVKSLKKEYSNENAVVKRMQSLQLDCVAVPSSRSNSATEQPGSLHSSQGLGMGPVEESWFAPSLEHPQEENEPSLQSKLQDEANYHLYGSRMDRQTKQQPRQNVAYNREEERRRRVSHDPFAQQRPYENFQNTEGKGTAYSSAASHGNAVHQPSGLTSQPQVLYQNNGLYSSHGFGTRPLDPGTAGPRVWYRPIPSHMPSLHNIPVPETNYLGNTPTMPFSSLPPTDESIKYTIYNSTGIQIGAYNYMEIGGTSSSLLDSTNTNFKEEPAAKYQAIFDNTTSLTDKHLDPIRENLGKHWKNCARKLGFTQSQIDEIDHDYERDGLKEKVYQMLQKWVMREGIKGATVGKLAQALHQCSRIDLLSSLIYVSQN
T28 sequence (Q52WX2 whole entry): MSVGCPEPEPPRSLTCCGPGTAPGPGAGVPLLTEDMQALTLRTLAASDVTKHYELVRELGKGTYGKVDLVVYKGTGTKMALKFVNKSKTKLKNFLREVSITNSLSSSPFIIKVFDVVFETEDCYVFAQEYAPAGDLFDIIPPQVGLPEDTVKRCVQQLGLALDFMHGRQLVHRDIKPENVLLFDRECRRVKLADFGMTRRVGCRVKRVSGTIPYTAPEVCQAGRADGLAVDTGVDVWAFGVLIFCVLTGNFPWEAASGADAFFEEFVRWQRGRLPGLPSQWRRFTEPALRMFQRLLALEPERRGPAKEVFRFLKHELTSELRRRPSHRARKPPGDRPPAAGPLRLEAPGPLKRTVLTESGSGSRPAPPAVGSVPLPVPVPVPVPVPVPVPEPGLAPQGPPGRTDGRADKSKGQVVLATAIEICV
T10 sequence (P54762 18-984): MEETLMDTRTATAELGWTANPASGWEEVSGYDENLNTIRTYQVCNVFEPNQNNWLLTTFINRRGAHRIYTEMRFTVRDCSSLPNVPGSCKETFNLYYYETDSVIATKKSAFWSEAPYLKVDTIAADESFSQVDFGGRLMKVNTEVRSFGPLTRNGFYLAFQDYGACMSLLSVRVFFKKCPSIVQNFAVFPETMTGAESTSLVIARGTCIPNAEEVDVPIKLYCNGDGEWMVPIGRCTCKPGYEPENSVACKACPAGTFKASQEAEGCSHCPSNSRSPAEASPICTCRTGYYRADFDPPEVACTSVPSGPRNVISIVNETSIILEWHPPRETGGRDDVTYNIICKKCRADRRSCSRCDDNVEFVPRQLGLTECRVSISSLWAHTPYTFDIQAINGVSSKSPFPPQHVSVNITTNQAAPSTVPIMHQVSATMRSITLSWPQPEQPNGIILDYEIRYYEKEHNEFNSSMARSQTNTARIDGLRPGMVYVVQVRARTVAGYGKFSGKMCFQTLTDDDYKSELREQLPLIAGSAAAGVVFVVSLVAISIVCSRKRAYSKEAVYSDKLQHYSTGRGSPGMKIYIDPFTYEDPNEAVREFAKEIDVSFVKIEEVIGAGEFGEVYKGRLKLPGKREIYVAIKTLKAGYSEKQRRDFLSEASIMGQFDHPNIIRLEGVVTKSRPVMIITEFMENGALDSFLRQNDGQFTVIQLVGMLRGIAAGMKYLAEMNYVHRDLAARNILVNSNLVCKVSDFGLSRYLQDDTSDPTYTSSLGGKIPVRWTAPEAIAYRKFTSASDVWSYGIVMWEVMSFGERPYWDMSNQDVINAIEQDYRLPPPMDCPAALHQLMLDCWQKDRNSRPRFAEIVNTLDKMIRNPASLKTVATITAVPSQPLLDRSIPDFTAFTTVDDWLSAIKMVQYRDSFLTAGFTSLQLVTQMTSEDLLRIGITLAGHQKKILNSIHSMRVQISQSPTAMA
T32 sequence (Q9UKI8 whole entry): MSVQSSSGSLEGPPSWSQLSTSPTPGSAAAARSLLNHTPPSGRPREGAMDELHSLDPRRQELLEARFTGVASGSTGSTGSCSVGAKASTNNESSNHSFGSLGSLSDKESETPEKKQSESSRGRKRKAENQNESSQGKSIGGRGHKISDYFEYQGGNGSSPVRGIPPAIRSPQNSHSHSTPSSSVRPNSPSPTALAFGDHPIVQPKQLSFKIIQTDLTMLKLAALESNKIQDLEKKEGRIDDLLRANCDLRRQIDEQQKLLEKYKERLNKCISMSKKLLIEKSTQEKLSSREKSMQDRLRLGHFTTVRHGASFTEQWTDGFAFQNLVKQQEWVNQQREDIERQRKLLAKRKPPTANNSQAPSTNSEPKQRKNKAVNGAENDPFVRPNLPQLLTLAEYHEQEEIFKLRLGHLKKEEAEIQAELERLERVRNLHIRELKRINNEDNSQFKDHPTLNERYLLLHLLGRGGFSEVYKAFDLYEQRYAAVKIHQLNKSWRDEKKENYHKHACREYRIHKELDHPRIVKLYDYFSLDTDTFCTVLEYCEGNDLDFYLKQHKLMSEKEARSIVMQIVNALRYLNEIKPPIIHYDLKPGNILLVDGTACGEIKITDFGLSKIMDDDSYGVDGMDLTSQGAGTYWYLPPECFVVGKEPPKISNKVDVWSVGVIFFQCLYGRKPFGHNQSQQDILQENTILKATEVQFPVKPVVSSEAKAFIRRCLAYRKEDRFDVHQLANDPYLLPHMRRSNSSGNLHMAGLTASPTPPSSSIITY
T11 sequence (P28482 whole entry): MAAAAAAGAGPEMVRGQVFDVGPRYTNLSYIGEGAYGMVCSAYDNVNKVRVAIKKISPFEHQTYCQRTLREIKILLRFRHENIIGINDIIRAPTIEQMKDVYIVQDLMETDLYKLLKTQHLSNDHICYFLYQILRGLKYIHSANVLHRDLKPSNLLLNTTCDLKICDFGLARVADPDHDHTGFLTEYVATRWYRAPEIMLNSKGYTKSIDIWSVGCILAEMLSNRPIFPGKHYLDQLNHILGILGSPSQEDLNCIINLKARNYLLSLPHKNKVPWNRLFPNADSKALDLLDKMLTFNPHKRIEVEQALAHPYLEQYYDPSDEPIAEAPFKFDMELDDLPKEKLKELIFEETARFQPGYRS
T30 sequence (Q9H2K8 whole entry): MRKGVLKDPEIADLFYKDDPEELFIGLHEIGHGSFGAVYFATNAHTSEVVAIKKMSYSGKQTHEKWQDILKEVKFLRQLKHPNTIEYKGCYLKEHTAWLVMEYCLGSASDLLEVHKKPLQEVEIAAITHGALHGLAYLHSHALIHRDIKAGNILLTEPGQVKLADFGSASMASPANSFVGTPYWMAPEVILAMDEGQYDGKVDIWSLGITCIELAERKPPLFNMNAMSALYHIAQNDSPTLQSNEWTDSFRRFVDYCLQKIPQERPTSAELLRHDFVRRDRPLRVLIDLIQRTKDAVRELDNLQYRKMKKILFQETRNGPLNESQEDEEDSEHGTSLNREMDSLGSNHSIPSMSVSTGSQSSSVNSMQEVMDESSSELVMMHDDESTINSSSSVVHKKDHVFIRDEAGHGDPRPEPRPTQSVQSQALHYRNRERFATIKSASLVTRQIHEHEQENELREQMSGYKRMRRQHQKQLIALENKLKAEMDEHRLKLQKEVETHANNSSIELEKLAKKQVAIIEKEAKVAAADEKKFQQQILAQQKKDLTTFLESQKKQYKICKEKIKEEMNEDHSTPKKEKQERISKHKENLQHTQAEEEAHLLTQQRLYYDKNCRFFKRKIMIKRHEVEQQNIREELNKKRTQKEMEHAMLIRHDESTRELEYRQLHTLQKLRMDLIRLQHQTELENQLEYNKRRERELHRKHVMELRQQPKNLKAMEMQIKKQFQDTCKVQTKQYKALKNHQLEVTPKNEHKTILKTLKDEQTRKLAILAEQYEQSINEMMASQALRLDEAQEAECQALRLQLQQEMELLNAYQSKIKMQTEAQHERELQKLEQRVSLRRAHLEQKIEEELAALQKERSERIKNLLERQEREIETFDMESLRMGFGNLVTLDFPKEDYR

Cc1ccccc1-n1c(C(C)Nc2nc(N)nc3nc[nH]c23)nc2cccc(C)c2c1=O (stereo not drawn) [CAL-130]
100%: [1] | [2] | [3] | [4] | [5] | [6] | [7] | [8] | [9] | [10] | [11] | [12] | [13] | [14] | [15] | [16] | [17] | [18] | [19] | [20] | [21] | [22] | [23] | [24] | [25] | [26] | [27] | [28] | [29] | [30] | [31] | [32] | [33] | [34] | [35] | [36]
